Data as given in US20240122923A1, “METHODS OF TREATING HIDRADENITIS SUPPURATIVA” (AbbVie Inc., priority 2022, published 2024).
Several values for one entry are separate records, joined by “and”; a condition that tells them apart may be missing. Equal values may be shown once.

What was measured:
Type in all cases: in vivo
[1] = test system: adult human subjects with moderate to severe Hidradenitis Suppurativa (HS); experiment: Phase 2 randomized, double-blind, placebo-controlled study of upadacitinib, efficacy incl. post-hoc analysis through week 40; settings: for subjects achieving HiSCR at Week 12, n (%): upadacitinib 30 mg QD oral, N=47; for subjects achieving Pain NRS30 at Week 12 among subjects with Baseline NRS ≥ 3, n (%): upadacitinib 30 mg QD, N=33
Source text: (§1) This study was a Phase 2, multicenter, randomized, double-blind, parallel-group, placebo-controlled study to evaluate the efficacy and safety of upadacitinib in adult human subjects with moderate to severe Hidradenitis Suppurativa (HS).
(§2) The duration of the study was 57 weeks, including an approximately 35-day screening period followed by a 48-week double-blinded treatment period and a 30-day follow-up visit after the last dose of study drug. Subjects were randomized in a 2:1 ratio to 1 of the 2 arms as shown below: • Upadacitinib 30 mg once daily (QD) (N=40): Daily oral doses of upadacitinib 30 mg from the Baseline visit through Period 1 and Period 2. • Placebo (N=20): Placebo for upadacitinib from the Baseline visit up to the Week 12 visit (Period 1). At Week 12, subjects were switched to blinded upadacitinib 15 mg QD through Period 2.
The primary objective of this study was to assess the efficacy and safety of upadacitinib 30 mg QD in adult subjects with moderate to severe HS. The primary efficacy objective was assessed based on the achievement of HiSCR after 12 weeks treatment.
The primary endpoint was Hidradenitis Suppurativa Clinical Response (HiSCR) at Week 12, where HiSCR is defined as at least 50% reduction in the total abscess and inflammatory nodule (AN) count with no increase in abscess count and no increase in draining fistula count relative to Baseline.
The secondary endpoint was Pain Numerical Rating Scale (NRS30) at Week 12: the achievement of at least 30% reduction and at least 1 unit reduction from Baseline in NRS30 in Patient's Global Assessment of Skin Pain (PGA Skin Pain) at Week 12, among subjects with Baseline NRS≥3.
The following additional efficacy endpoints were evaluated: • 1. Experience of flare, defined as an increase in AN count of at least 25% with a minimum increase of 2 relative to Baseline • 2. Change from Baseline in Dermatology Life Quality Index (DLQI) • 3. Change from baseline in Hidradenitis Suppurativa Symptom Assessment (HSSA) • 4. Change from baseline in HS-related swelling, assessed based on the HSSA • 5. Change from baseline in HS-related odor, assessed based on the HSSA • 6. Change from baseline in HS-related worst drainage, assessed based on the HSSA
For the primary and secondary endpoints, comparisons of upadacitinib vs. placebo were made with 3 different analysis strategies, as summarized in Table 1 below:
For the additional endpoints, comparisons were made for upadacitinib vs. historical reference value of placebo, and upadacitinib vs. in-trial placebo subjects.
For categorical variables, the primary approach to handle missing data was Non-Responder Imputation [NRI] incorporating Multiple Imputation [MI]. For continuous variables, missing data was handled by Mixed-effect Model Repeat Measurement (MMRM). Missing data for long-term efficacy in Period 2 were handled based on the observed case (OC).
A post-hoc efficacy assessment through week 40 was performed in the study of Example 1. The analysis included the proportion of patients achieving ≥75% and ≥90% reduction from baseline in AN count with no increase in abscess or draining fistula count (HiSCR 75 and HiSCR 90, respectively) and the proportion of patients achieving ≥55% reduction in International HS Severity Score System endpoint (IHS4-55), which dynamically assesses inflammatory nodules, abscesses, and draining tunnels.

[2] = test system: adult human subjects with moderate to severe Hidradenitis Suppurativa (HS); experiment: Phase 2 study of upadacitinib in HS, safety (TEAEs, discontinuation due to adverse event)
Source text: as §1, §2
Treatment-emergent adverse events (TEAEs), adverse events of interests (AESIs), and potentially clinically important (PCI) laboratory changes were monitored in Period 1.

[3] = test system: adult human subjects with moderate to severe Hidradenitis Suppurativa (HS); experiment: Phase 2 randomized, double-blind, placebo-controlled study of upadacitinib, efficacy incl. post-hoc analysis through week 40; settings: UPA 30 mg QD; N=47; flare = AN count increase ≥25% with minimum increase of 2
[4] = UPA 30 mg, analysis vs historical reference value of PBO
[5] = UPA 30 mg, analysis vs in-trial PBO
[6] = Week 12, UPA 30 mg, Observed Case, n=39
[7] = Week 40, PBO/UPA 15 mg (switched at week 12), NRI-C, n=19
[8] = Week 40, UPA 30 mg/UPA 30 mg, NRI-C, n=47
[9] = Week 40, UPA 30 mg/UPA 30 mg, Observed Case, n=29

CC[C@@H]1CN(C(=O)NCC(F)(F)F)C[C@@H]1c1cnc2cnc3[nH]ccc3n12 [upadacitinib]
HiSCR at Week 12, % (N), stratum TNF-Naïve ([1]; UPA 30 mg, NRI-C, N=35, listed as UPA): 37.1% (N = 35)
Change in DLQI at Week 12, LS Mean (SE) [1, 4]: −2.4 (1.05)
Change in HSSA odor at Week 12, LS Mean (SE) [1, 4]: -1.2
Change in HSSA swelling at Week 12, LS Mean (SE) [1, 4]: -0.931
Change in HSSA total symptom at Week 12, LS Mean (SE) [1, 4]: -0.969
Change in HSSA worst drainage at Week 12, LS Mean (SE) [1, 4]: −1.131 (0.31)
Change in DLQI at Week 12, LS Mean (SE) [1, 5]: -2.4
Change in HSSA odor at Week 12, LS Mean (SE) [1, 5]: −1.171 (0.36)
Change in HSSA swelling at Week 12, LS Mean (SE) [1, 5]: −0.922 (0.34)
Change in HSSA total symptom at Week 12, LS Mean (SE) [1, 5]: −1.034 (0.27)
Change in HSSA worst drainage at Week 12, LS Mean (SE) [1, 5]: −1.259 (0.30)
Patients achieving HiSCR 90, n (%) ([1]; Week 12, UPA 30 mg, NRI-C, n=47, listed as UPA): 8.5% and 4 (8.5)^‡ %
Patients achieving HiSCR 75, n (%) [1, 6]: 10 (25.6) %
Patients achieving HiSCR 90, n (%) [1, 6]: 4 (10.3) %
Patients achieving HiSCR, n (%) [1, 6]: 18 (46.2) %
Patients achieving IHS4-55, n (%) [1, 6]: 19 (48.7) %
Patients achieving HiSCR 75, n (%) [1, 7]: 7 (36.8) %
Patients achieving HiSCR 90, n (%) [1, 7]: 4 (21.1) %
Patients achieving HiSCR, n (%) [1, 7]: 10 (52.6) %
Patients achieving IHS4-55, n (%) [1, 7]: 12 (63.2) %
Patients achieving IHS4-55, n (%) ([1]; Week 40, PBO/UPA 15 mg (switched at week 12), Observed Case, n=14): 85.7%
Patients achieving IHS4-55, n (%) ([1]; Week 40, PBO/UPA 15 mg (switched at week 12), Observed Case, n=14, listed as UPA): 12 (85.7) %
Patients achieving HiSCR 75, n (%) [1, 8]: 18 (38.3) %
Patients achieving HiSCR 90, n (%) [1, 8]: 9 (19.1) %
Patients achieving HiSCR, n (%) [1, 8]: 22 (46.8) %
Patients achieving IHS4-55, n (%) [1, 8]: 21 (44.7) %
Patients achieving HiSCR 75, n (%) [1, 9]: 18 (62.1) %
Patients achieving IHS4-55, n (%) [1, 9]: 72.4%
Patients achieving IHS4-55, n (%) ([1]; Week 40, UPA 30 mg/UPA 30 mg, Observed Case, n=29, listed as UPA): 21 (72.4) %
subjects achieving HiSCR at Week 12, n (%) ([1]; NRI-C): 38.3%
subjects achieving HiSCR at Week 12, n (%) ([1]; NRI-C, listed as Upadacitinib): 18 (38.3) %
subjects achieving Pain NRS30 at Week 12 among subjects with Baseline NRS ≥ 3, n (%) ([1]; NRI-C): 36.4%
subjects achieving Pain NRS30 at Week 12 among subjects with Baseline NRS ≥ 3, n (%) ([1]; NRI-C, listed as UPA): 12 (36.4%)
subjects achieving Pain NRS30 at Week 12 among subjects with Baseline NRS ≥ 3, n (%) ([1]; NRI-C, listed as Upadacitinib): 12 (36.4) %
most frequently reported TEAE (≥5%) ([2]; Period 1, upadacitinib 30 mg QD group): headache, dizziness, and urinary tract infection
Discontinued Study Drug during Period 2 (primary reason): Adverse event, n (%) ([2]; Placebo/UPA 15 mg, N=19): 0
Discontinued Study Drug during Period 1: Adverse Event, n (%) ([2]; UPA 30 mg, N=47): (2.1) %
Discontinued Study Drug during Period 2 (primary reason): Adverse event, n (%) ([2]; UPA 30 mg, N=47): 0
Flare during Period 1, n (%) [3]: 6 (12.8%)
